Measured values: PubChem BioAssay AID248 (DTP/NCI, 2004)
Several values for one entry are separate records, joined by “and”; a condition that tells them apart may be missing. Equal values may be shown once. Toxic doses and inconclusive results are not listed.

Tested on: L1210 leukemia ip in BDF1 mice, survival T/C
Assay: NCI In Vivo Anticancer Drug Screen. Data for tumor model L1210 Leukemia (intraperitoneal) in B6D2F1 (BDF1) mice
Settings: endpoint: mean survival time, higher = longer survival
How it was run: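 In this screen, tumor-bearing mice given compound are compared to those given vehicle, and their survival values are reported as a treated-to-control quotient.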

[1] = dose: 100.0 mg/kg/injection, schedule: Q01DX001 (ip), vehicle: Klucel (hydroxypropylcellulose) (HPC)
[2] = dose: 50.0 mg/kg/injection, schedule: Q01DX009 (ip), vehicle: saline with Tween-80
[3] = dose: 100.0 mg/kg/injection, schedule: Q01DX009 (ip), vehicle: saline with Tween-80
[4] = dose: 50.0 mg/kg/injection, schedule: Q01DX001 (ip), vehicle: saline
[5] = dose: 100.0 mg/kg/injection, schedule: Q01DX001 (ip), vehicle: saline
[6] = dose: 200.0 mg/kg/injection, schedule: Q01DX001 (ip), vehicle: saline
[7] = dose: 400.0 mg/kg/injection, schedule: Q01DX001 (ip), vehicle: saline
[8] = dose: 100.0 mg/kg/injection, schedule: Q01DX009 (ip), vehicle: Klucel (hydroxypropylcellulose) (HPC)
[9] = dose: 100.0 mg/kg/injection, schedule: Q04DX003 (ip), vehicle: Klucel (hydroxypropylcellulose) (HPC)
[10] = dose: 200.0 mg/kg/injection, schedule: Q04DX003 (ip), vehicle: Klucel (hydroxypropylcellulose) (HPC)
[11] = dose: 400.0 mg/kg/injection, schedule: Q04DX003 (ip), vehicle: Klucel (hydroxypropylcellulose) (HPC)
[12] = dose: 100.0 mg/kg/injection, schedule: Q04DX003 (ip), vehicle: saline with Tween-80
[13] = dose: 200.0 mg/kg/injection, schedule: Q04DX003 (ip), vehicle: saline with Tween-80
[14] = dose: 400.0 mg/kg/injection, schedule: Q04DX003 (ip), vehicle: saline with Tween-80
[15] = dose: 25.0 mg/kg/injection, schedule: Q04DX003 (ip), vehicle: saline with Tween-80
[16] = dose: 50.0 mg/kg/injection, schedule: Q04DX003 (ip), vehicle: saline with Tween-80
[17] = dose: 50.0 mg/kg/injection, schedule: Q01DX009 (ip), vehicle: Klucel (hydroxypropylcellulose) (HPC)

## COc1ccc(-n2c(=O)c(N=Nc3ccc(Cl)cc3)c(O)n(-c3ccccc3Cl)c2=S)cc1
dose: 50.0 mg/kg/injection, schedule: Q01DX001 (ip), vehicle: Klucel (hydroxypropylcellulose) (HPC)
  T/C: 106 % of control
[1]
  T/C: 97 % of control
dose: 200.0 mg/kg/injection, schedule: Q01DX001 (ip), vehicle: Klucel (hydroxypropylcellulose) (HPC)
  T/C: 95 % of control

## O=c1oc(-c2ccccc2Cl)nc2cc(Cl)ccc12
[2]
  T/C: 96 % of control
[3]
  T/C: 100 % of control

## CC(C)C12NC(=O)NC(=O)N1CCS2 (configuration not stated)
[4]
  T/C: 93 % of control
[5]
  T/C: 96 % of control
[6]
  T/C: 100 % of control
[7]
  T/C: 100 % of control

## O=C(OCCN1C(=O)c2cccc3c(Br)ccc(c23)C1=O)OCc1ccccc1
dose: 100.0 mg/kg/injection, schedule: Q04DX002 (ip), vehicle: alcohol
  T/C: 103 % of control
dose: 200.0 mg/kg/injection, schedule: Q04DX002 (ip), vehicle: alcohol
  T/C: 100 % of control
dose: 400.0 mg/kg/injection, schedule: Q04DX002 (ip), vehicle: alcohol
  T/C: 100 % of control

## Cc1ccc(Cl)cc1NC(=O)c1ccccc1
[8]
  T/C: 89 % of control
[9]
  T/C: 95 % of control
dose: 200.0 mg/kg/injection, schedule: Q01DX009 (ip), vehicle: Klucel (hydroxypropylcellulose) (HPC)
  T/C: 100 % of control
[10]
  T/C: 106 % of control
dose: 400.0 mg/kg/injection, schedule: Q01DX009 (ip), vehicle: Klucel (hydroxypropylcellulose) (HPC)
  T/C: 94 % of control
[11]
  T/C: 95 % of control

## Nc1ncc(Br)c2ccccc12
[12]
  T/C: 96 % of control
[13]
  T/C: 103 % of control

## CC(Br)C(=O)NC(Cc1ccccc1)C(=O)O (configuration not stated)
dose: 100.0 mg/kg/injection, schedule: Q01DX009 (ip), vehicle: alcohol
  T/C: 93 % of control
dose: 100.0 mg/kg/injection, schedule: Q04DX003 (ip), vehicle: other
  T/C: 104 % of control
[12]
  T/C: 94 % of control
dose: 200.0 mg/kg/injection, schedule: Q01DX009 (ip), vehicle: alcohol
  T/C: 100 % of control
dose: 200.0 mg/kg/injection, schedule: Q04DX003 (ip), vehicle: other
  T/C: 104 % of control and 88 % of control
[13]
  T/C: 96 % of control
dose: 400.0 mg/kg/injection, schedule: Q01DX009 (ip), vehicle: alcohol
  T/C: 90 % of control
dose: 400.0 mg/kg/injection, schedule: Q04DX003 (ip), vehicle: other
  T/C: 92 % of control and 88 % of control
[14]
  T/C: 91 % of control

## O=C(/C=C/C=C/c1ccccc1)c1ccccc1O
[2]
  T/C: 91 % of control
[3]
  T/C: 87 % of control and 89 % of control
[12]
  T/C: 94 % of control
dose: 200.0 mg/kg/injection, schedule: Q01DX009 (ip), vehicle: saline with Tween-80
  T/C: 94 % of control
[13]
  T/C: 91 % of control
dose: 400.0 mg/kg/injection, schedule: Q01DX009 (ip), vehicle: saline with Tween-80
  T/C: 89 % of control
[14]
  T/C: 93 % of control

## CCn1c(O)c(C=N)c(=O)n(CC)c1=O
dose: 100.0 mg/kg/injection, schedule: Q01DX009 (ip), vehicle: saline
  T/C: 95 % of control
dose: 100.0 mg/kg/injection, schedule: Q04DX003 (ip), vehicle: saline
  T/C: 106 % of control
dose: 200.0 mg/kg/injection, schedule: Q04DX003 (ip), vehicle: saline
  T/C: 93 % of control
dose: 400.0 mg/kg/injection, schedule: Q04DX003 (ip), vehicle: saline
  T/C: 113 % of control

## CC(C)Cn1cnc2c(Sc3c([N+](=O)[O-])ncn3C)nc(N)nc21
dose: 6.0 mg/kg/injection, schedule: Q01DX015 (ip), vehicle: carboxymethylcellulose (CMC)
  T/C: 104 % of control
dose: 12.0 mg/kg/injection, schedule: Q01DX015 (ip), vehicle: carboxymethylcellulose (CMC)
  T/C: 111 % of control
dose: 25.0 mg/kg/injection, schedule: Q01DX015 (ip), vehicle: carboxymethylcellulose (CMC)
  T/C: 117 % of control
dose: 50.0 mg/kg/injection, schedule: Q01DX001 (ip), vehicle: carboxymethylcellulose (CMC)
  T/C: 114 % of control
dose: 100.0 mg/kg/injection, schedule: Q01DX001 (ip), vehicle: carboxymethylcellulose (CMC)
  T/C: 117 % of control
dose: 200.0 mg/kg/injection, schedule: Q01DX001 (ip), vehicle: carboxymethylcellulose (CMC)
  T/C: 119 % of control
dose: 400.0 mg/kg/injection, schedule: Q01DX001 (ip), vehicle: carboxymethylcellulose (CMC)
  T/C: 162 % of control
dose: 600.0 mg/kg/injection, schedule: Q01DX001 (ip), vehicle: carboxymethylcellulose (CMC)
  T/C: 170 % of control

## CCCCCCCCCCN1CCN2C(=O)N(CC)CCC2C1 (configuration not stated)
[15]
  T/C: 94 % of control
[16]
  T/C: 105 % of control
dose: 100.0 mg/kg/injection, schedule: Q01DX001 (ip), vehicle: saline with Tween-80
  T/C: 96 % of control
[12]
  T/C: 94 % of control

## CCCCN(CCCC)CCNc1ccc(Cl)c2oc3cc(C)ccc3c(=O)c12
dose: 12.5 mg/kg/injection, schedule: Q01DX009 (ip), vehicle: Klucel (hydroxypropylcellulose) (HPC)
  T/C: 95 % of control
dose: 12.5 mg/kg/injection, schedule: Q04DX003 (ip), vehicle: saline with Tween-80
  T/C: 94 % of control
dose: 25.0 mg/kg/injection, schedule: Q01DX009 (ip), vehicle: Klucel (hydroxypropylcellulose) (HPC)
  T/C: 92 % of control
[15]
  T/C: 95 % of control
[4]
  T/C: 93 % of control
[17]
  T/C: 93 % of control
[16]
  T/C: 87 % of control
[5]
  T/C: 98 % of control
[8]
  T/C: 95 % of control
[6]
  T/C: 93 % of control
[7]
  T/C: 98 % of control

## CC12CC/C(=N/NC(=O)Cc3c[nH]c4ccccc34)CC1CCC1C2CCC2(C)C(OC(=O)c3ccccc3)CCC12 (configuration not stated)
dose: 100.0 mg/kg/injection, schedule: Q01DX001 (sc), vehicle: steriod suspending solution
  T/C: 101 % of control
dose: 100.0 mg/kg/injection, schedule: Q01DX009 (sc), vehicle: steriod suspending solution
  T/C: 104 % of control
dose: 200.0 mg/kg/injection, schedule: Q01DX001 (sc), vehicle: steriod suspending solution
  T/C: 100 % of control
dose: 200.0 mg/kg/injection, schedule: Q01DX009 (sc), vehicle: steriod suspending solution
  T/C: 104 % of control
dose: 400.0 mg/kg/injection, schedule: Q01DX001 (sc), vehicle: steriod suspending solution
  T/C: 111 % of control
dose: 400.0 mg/kg/injection, schedule: Q01DX009 (sc), vehicle: steriod suspending solution
  T/C: 102 % of control

## O=C1OC(c2ccc(Cl)cc2)=N/C1=C\c1ccc(Cl)c(Cl)c1
dose: 100.0 mg/kg/injection, schedule: Q04DX002 (ip), vehicle: saline
  T/C: 106 % of control
dose: 200.0 mg/kg/injection, schedule: Q04DX002 (ip), vehicle: saline
  T/C: 92 % of control
dose: 400.0 mg/kg/injection, schedule: Q04DX002 (ip), vehicle: saline
  T/C: 100 % of control

## CC(=O)Nc1nc(Cl)c([N+](=O)[O-])c(SCc2ccccc2)n1
dose: 25.0 mg/kg/injection, schedule: Q01DX009 (ip), vehicle: saline with Tween-80
  T/C: 90 % of control
[2]
  T/C: 93 % of control and 97 % of control
[3]
  T/C: 101 % of control and 104 % of control
[12]
  T/C: 87 % of control
[13]
  T/C: 98 % of control

## NC(=O)OCC1OC(n2ccc(=O)[nH]c2=O)C(O)C1O (configuration not stated)
dose: 100.0 mg/kg/injection, schedule: Q01DX005 (ip), vehicle: saline
  T/C: 105 % of control

## CC1=C2CCCC(=O)C2(C)CCC1=O (configuration not stated)
dose: 100.0 mg/kg/injection, schedule: Q04DX002 (ip), vehicle: Klucel (hydroxypropylcellulose) (HPC)
  T/C: 107 % of control
dose: 200.0 mg/kg/injection, schedule: Q04DX002 (ip), vehicle: Klucel (hydroxypropylcellulose) (HPC)
  T/C: 96 % of control

## CC1CNC2C(C)C3C(CC4C5CCC6CC(N=Cc7ccccc7)C(O)CC6(C)C5CCC43C)OC2(O)C1 (configuration not stated)
[1]
  T/C: 87 % of control
dose: 400.0 mg/kg/injection, schedule: Q01DX001 (ip), vehicle: Klucel (hydroxypropylcellulose) (HPC)
  T/C: 91 % of control

## Cc1cc([N+](=O)[O-])cc([N+](=O)[O-])c1Cl
[17]
  T/C: 103 % of control
[8]
  T/C: 100 % of control
[9]
  T/C: 98 % of control
[10]
  T/C: 103 % of control

## CC1=COC(C)(C(=O)O)CC1 (configuration not stated)
dose: 55.0 mg/kg/injection, schedule: Q01DX Z (ip), vehicle: methylcellulose (MC)
  T/C: 100 % of control
dose: 83.0 mg/kg/injection, schedule: Q01DX Z (ip), vehicle: methylcellulose (MC)
  T/C: 86 % of control
dose: 125.0 mg/kg/injection, schedule: Q01DX Z (ip), vehicle: methylcellulose (MC)
  T/C: 102 % of control

## CCC(=O)N(c1ccccc1)C1/C(=C\c2ccccc2)N2CCC1CC2 (configuration not stated)
[9]
  T/C: 97 % of control
[10]
  T/C: 95 % of control
[11]
  T/C: 95 % of control
